We go through ten compounds from patent US8791131B2, “Imidazo[1,5]naphthyridine compounds, their pharmaceutical use and compositions” (Pfizer Inc., priority 2008, dated 2014).

Read-outs that look alike come from different tables or passages of the source.

For experiment [1], the target named is PI3-Kα (Mus musculus (Mouse), UniProt P42337). Briefly: PI3-Kα biochemical assay (in vitro kinase assay, fluorescence polarization).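 Further: Insect-cell-expressed mouse p110/p85 complex converting PI(4,5)P2, product PI(3,4,5)P3 detected by displacing TAMRA-tagged PI(3,4,5)P3 from Grip1 PH domain, lower polarization means more product, room temperature.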 The following applies: read-out: PI3Ka Ki.
Sequence of PI3-Kα (P42337 whole entry, the tested form may be a part): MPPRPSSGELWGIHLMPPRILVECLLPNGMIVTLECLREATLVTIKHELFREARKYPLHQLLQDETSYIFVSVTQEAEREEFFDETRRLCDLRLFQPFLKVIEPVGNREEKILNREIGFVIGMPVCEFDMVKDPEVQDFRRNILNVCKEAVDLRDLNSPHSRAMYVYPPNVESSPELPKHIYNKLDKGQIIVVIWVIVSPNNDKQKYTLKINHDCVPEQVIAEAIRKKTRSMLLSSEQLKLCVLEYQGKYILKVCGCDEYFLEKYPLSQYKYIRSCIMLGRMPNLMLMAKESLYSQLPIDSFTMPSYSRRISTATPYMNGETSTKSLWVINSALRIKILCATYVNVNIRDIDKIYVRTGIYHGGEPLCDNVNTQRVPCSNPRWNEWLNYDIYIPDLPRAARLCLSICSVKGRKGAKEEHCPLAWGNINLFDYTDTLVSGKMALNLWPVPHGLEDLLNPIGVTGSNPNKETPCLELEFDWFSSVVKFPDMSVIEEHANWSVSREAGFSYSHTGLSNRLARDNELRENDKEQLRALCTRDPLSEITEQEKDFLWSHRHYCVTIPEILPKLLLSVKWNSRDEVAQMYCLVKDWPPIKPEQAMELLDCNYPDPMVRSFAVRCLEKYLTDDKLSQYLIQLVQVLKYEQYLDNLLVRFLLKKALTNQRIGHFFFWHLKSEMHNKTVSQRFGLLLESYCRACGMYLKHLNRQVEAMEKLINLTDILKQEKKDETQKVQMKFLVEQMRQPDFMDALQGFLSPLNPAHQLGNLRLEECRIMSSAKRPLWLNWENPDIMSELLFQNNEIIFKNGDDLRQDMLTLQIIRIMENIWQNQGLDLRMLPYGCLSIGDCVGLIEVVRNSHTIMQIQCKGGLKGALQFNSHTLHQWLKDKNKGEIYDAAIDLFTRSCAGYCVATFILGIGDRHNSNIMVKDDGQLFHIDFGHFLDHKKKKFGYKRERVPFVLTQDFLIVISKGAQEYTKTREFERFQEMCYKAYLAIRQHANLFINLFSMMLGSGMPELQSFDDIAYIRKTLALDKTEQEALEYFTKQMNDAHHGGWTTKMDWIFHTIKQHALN
Sequence of PI3-Kα (P26450 whole entry partner, the tested form may be a part): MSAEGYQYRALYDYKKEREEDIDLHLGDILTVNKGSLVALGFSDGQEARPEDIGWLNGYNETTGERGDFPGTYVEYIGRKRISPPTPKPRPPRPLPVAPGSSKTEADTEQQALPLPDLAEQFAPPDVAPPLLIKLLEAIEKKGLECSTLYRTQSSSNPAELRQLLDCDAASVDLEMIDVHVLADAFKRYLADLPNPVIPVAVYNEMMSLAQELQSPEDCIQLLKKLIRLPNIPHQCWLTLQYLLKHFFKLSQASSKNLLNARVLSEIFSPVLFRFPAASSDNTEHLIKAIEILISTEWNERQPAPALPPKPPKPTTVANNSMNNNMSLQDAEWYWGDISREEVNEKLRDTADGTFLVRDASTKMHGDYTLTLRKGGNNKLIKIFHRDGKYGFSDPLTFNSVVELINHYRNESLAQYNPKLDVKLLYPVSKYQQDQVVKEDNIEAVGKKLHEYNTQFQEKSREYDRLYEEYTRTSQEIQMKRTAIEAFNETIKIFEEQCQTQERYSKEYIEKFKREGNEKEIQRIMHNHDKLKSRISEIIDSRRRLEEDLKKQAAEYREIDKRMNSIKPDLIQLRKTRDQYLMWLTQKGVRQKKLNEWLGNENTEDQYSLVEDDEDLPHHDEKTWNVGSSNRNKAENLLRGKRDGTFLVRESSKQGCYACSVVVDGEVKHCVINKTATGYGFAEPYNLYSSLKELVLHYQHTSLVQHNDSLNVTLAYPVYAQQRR
Experiment [2] concerns the target mTOR (Homo sapiens (Human), UniProt P42345). Briefly: biochemical.
Experiment [3] has as its system PI3-K (phosphorylation of AKT at serine 473) in BT20 cells. Put plainly: PI3-Kα cellular assay (phospho-AKT Ser473 ELISA in BT20 cells).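 Further: lysates read by ELISA with TMB colour at 450 nm, cells given 0.5% DMSO vehicle serve as positive control and cell-free wells as negative control, duplicate wells per concentration.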 The following applies: Homo sapiens, BT-20, 1 h. A general note: ELISA stands for enzyme-linked immunosorbent assay.
Setting [4] is: read-out: S473 pAKT 10% FBS IC50 (μM).
[5] abbreviates: read-out: S473 pAKT 0.5% FBS IC50 (μM).

Sequence of mTOR (P42345 2156-2469): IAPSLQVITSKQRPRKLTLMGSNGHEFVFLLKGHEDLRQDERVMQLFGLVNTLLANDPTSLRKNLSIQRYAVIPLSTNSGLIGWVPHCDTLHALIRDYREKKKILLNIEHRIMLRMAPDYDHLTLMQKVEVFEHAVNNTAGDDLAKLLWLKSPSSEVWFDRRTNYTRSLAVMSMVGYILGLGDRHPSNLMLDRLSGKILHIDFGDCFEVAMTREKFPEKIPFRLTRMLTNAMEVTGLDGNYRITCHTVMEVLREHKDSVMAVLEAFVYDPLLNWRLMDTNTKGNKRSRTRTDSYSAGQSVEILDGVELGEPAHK

By Ki is commonly meant a dissociation constant, usually derived from enzyme kinetics or from competition with a known ligand. The term IC50 denotes the midpoint of a concentration-inhibition curve. Turning to `CN(C)c1ccc(-c2ccc3ncc4c(c3n2)n([C@H]2CC[C@H](O)CC2)c(=O)n4C)cn1` [Compound 175, 8-[6-(dimethylamino)pyridin-3-yl]-1-(trans-4-hydroxycyclohexyl)-3-methyl-1,3-dihydro-2H-imidazo[4,5-c][1,5]naphthyridin-2-one], the Ki in experiment [1] amounted to 0.666 nM; in experiment [2] it was 1.8 nM. Also, in experiment [3] (setting [4]), the IC50 worked out at 0.00526 µM.

Consider `Cc1ccc(-c2ccc3ncc4c(c3n2)n(C2CCNCC2)c(=O)n4C)cn1` [Compound 177, 3-methyl-8-(6-methyl-pyridin-3-yl)-1-piperidin-4-yl-1,3-dihydro-1,3,5,9-tetraaza-cyclopenta[a]naphthalen-2-one], for which the Ki is 2.45 nM in experiment [1] and 7.21 nM in experiment [2]. Moreover, in experiment [3] (setting [4]), the half-maximal inhibitory concentration (IC50) came out at 0.101 µM.

With `CNC(=O)N1CCC(n2c(=O)n(C)c3cnc4ccc(-c5ccc(C)nc5)nc4c32)CC1` [Compound 181, N-methyl-4-[3-methyl-8-(6-methylpyridin-3-yl)-2-oxo-2,3-dihydro-1H-imidazo[4,5-c][1,5]naphthyridin-1-yl]piperidine-1-carboxamide], the Ki in experiment [1] is 3.27 nM; in experiment [2], 1.06 nM. The IC50 in experiment [3] (setting [4]) is 0.0594 µM.

With `CNC(=O)N1CCC(n2c(=O)n(C)c3cnc4ccc(-c5cnc(OC)nc5)nc4c32)CC1` [Compound 186, 4-[8-(2-methoxypyrimidin-5-yl)-3-methyl-2-oxo-2,3-dihydro-1H-imidazo[4,5-c][1,5]naphthyridin-1-yl]-N-methylpiperidine-1-carboxamide], the Ki in experiment [1] worked out at 2.49 nM; in experiment [2], 3.06 nM. Moreover, the concentration for half-maximal inhibition (IC50) in experiment [3] (setting [4]) is 0.0681 µM.

As to `COc1ncc(-c2ccc3ncc4c(c3n2)n(C2CCN(C(=O)CO)CC2)c(=O)n4C)cn1` [Compound 189, 1-(1-glycoloylpiperidin-4-yl)-8-(2-methoxypyrimidin-5-yl)-3-methyl-1,3-dihydro-2H-imidazo[4,5-c][1,5]naphthyridin-2-one], the Ki in experiment [1] was 1.78 nM; in experiment [2] it was 1.95 nM. Besides, the IC50 in experiment [3] (setting [4]) worked out at 0.0272 µM.

For `COc1ncc(-c2ccc3ncc4c(c3n2)n(C2CCN(CC(N)=O)CC2)c(=O)n4C)cn1` [Compound 190, 2-{4-[8-(2-methoxypyrimidin-5-yl)-3-methyl-2-oxo-2,3-dihydro-1H-imidazo[4,5-c][1,5]naphthyridin-1-yl]piperidin-1-yl}acetamide], the Ki in experiment [1] amounted to 4.96 nM; in experiment [2], 9.76 nM. The IC50 in experiment [3] (setting [4]) is 0.0903 µM.

As to `CN[C@H]1CC[C@H](n2c(=O)n(C)c3cnc4ccc(-c5cnc6ccccc6c5)nc4c32)CC1` [Compound 193, 3-methyl-1-[trans-4-(methylamino)cyclohexyl]-8-quinolin-3-yl-1,3-dihydro-2H-imidazo[4,5-c][1,5]naphthyridin-2-one], the inhibition constant Ki in experiment [1] stood at 1.61 nM; in experiment [2] it was 13.1 nM. For the same compound, the IC50 in experiment [3] (setting [5]) was 0.0404 µM.

In the case of `Cn1c(=O)n([C@H]2CC[C@H](N)CC2)c2c3nc(-c4cnc5ccccc5c4)ccc3ncc21` [Compound 194, 1-(trans-4-aminocyclohexyl)-3-methyl-8-quinolin-3-yl-1,3-dihydro-2H-imidazo[4,5-c][1,5]naphthyridin-2-one], the Ki in experiment [1] was 2.3 nM; in experiment [2], 7.91 nM. In experiment [3] (setting [5]), the IC50 is 0.0464 µM.

For the compound `CN(C)C(=O)CN1CCC(n2c(=O)n(C)c3cnc4ccc(-c5cnn(C)c5)nc4c32)CC1` [Compound 212, N,N-dimethyl-2-{4-[3-methyl-8-(1-methyl-1H-pyrazol-4-yl)-2-oxo-2,3-dihydro-1H-imidazo[4,5-c][1,5]naphthyridin-1-yl]piperidin-1-yl}acetamide], the Ki in experiment [1] was 14.7 nM; in experiment [2], 27.9 nM. Moreover, the IC50 in experiment [3] (setting [4]) amounted to 0.248 µM.

For the compound `CC(=O)N1CCC(n2c(=O)n(C)c3cnc4ccc(-c5cccc6ncccc56)nc4c32)CC1` [Compound 249, 1-(1-acetylpiperidin-4-yl)-3-methyl-8-quinolin-5-yl-1,3-dihydro-2H-imidazo[4,5-c][1,5]naphthyridin-2-one], the Ki in experiment [1] amounted to 4.51 nM; in experiment [2] it was 442 nM. In experiment [3] (setting [4]), the IC50 was 0.194 µM.
